According to patent US20200277246A1, “TREATMENT METHOD, COMPOUNDS, AND METHOD OF INCREASING TRPV2 ACTIVITY” (THE FEINSTEIN INSTITUTE FOR MEDICAL RESEARCH, priority 2015, published 2020):
“And” between values parts separate entries of the source, which are not always exact repeats. Equal values may be shown once.

Tests used:
[1] = test system: FLS; assay: FLS invasion, focused library screen (Table 1); type: cell-based; settings: evaluated over 24 hours in vitro
Method: The in vitro invasiveness of FLS was assayed in a transwell system using Matrigel-coated inserts (BD Biosciences, Franklin Lakes, N.J.), as previously described (Tolboom et al., “Invasiveness of Fibroblast-Like Synoviocytes is an Individual Patient Characteristic Associated with the Rate of Joint Destruction in Patients with Rheumatoid Arthritis,” Arthritis Rheum. 52 (7):1999-2002 (2005); Laragione et al., “The Arthritis Severity Locus Cia5d is a Novel Genetic Regulator of the Invasive Properties of Synovial Fibroblasts,” Arthritis Rheum. 58 (8):2296-2306 (2008), which are hereby incorporated by reference in their entirety). Briefly, 70-80% confluent cells were harvested by trypsin-EDTA digestion, and re-suspended at 2.0×10^4 cells in 500 μl of serum-free DMEM. Cells were placed in the upper compartment of the Matrigel-coated inserts. Where indicated, O1821, LER13, or vehicle was added to the upper chamber. The lower compartment was filled with complete media and the plates were incubated at 37° C. for 24 hours. After 24 hours the upper surface of the insert was wiped with cotton-swabs to remove non-invading cells and the Matrigel layer. The opposite side of the insert was stained with Crystal Violet (Sigma) and the total number of cells that invaded through Matrigel counted at 100× magnification. Experiments were done in duplicate.

[2] = test system: MMP-2; assay: IL-1β-induced MMP-2 expression (qPCR) in RA FLS; type: cell-based, human; settings: IL-1β 10 ng/ml 48 hours, 10 μM, n=6 RA
Method: The qPCR conditions used have been previously described (Laragione et al., “Cia5d Regulates a New Fibroblast-Like Synoviocyte Invasion-Associated Gene Expression Signature,” Arthritis Res. Ther. 10 (4):R92 (2008), which is hereby incorporated by reference in its entirety). Briefly, total RNA (200 ng) from each sample was reverse transcribed using Superscript III (Invitrogen). MMP-2 (forward-[…] (SEQ ID NO: 1); reverse-GGTATCCATCGCCATGCT (SEQ ID NO: 2) and MMP-3 (forward-CCAGGTGTGGAGTTCCTGA (SEQ ID NO: 3); reverse-[…] (SEQ ID NO: 4)) primers were designed based on the Universal ProbeLibrary (Roche, Indianapolis, Ind.). Reactions were prepared with Absolute Blue qPCR Mix (Thermo Fisher, Waltham, Mass.), and run in duplicate on a LightCycler 480 thermocycler (Roche) using Relative Quantitative Software (Roche). Ct (threshold cycle) values were adjusted for GAPDH in each sample (ΔCt). Fold differences were calculated with the 2^−ΔΔCt method (Livak et al., “Analysis of Relative Gene Expression Data Using Real-Time Quantitative PCR and the 2(-Delta Delta C(T)) Method,” Methods 25 (4):402-408 (2001), which is hereby incorporated by reference in its entirety).

[3] = test system: cervix carcinoma cell line; assay: Cancer cell invasion, cervix carcinoma; type: cell-based
[4] = test system: FLS actin cytoskeleton, lamellipodia and Trpv2 distribution; assay: Immunofluorescence and confocal microscopy of FLS; type: cell-based
Method: Immunofluorescence was performed as previously reported (Laragione et al., “mTOR Regulates the Invasive Properties of Synovial Fibroblasts in Rheumatoid Arthritis,” Mol. Med. 16 (9-10):352-358 (2010); Chan et al., “The GTPase Rac Regulates the Proliferation and Invasion of Fibroblast-Like Synoviocytes from Rheumatoid Arthritis Patients,” Mol. Med. 13 (5-6):297-304 (2007), which are hereby incorporated by reference in their entirety). Briefly, FLS were cultured on coverslips to 10-20% confluence, starved overnight and then pre-treated for 30 minutes, 60 minutes or 24 h with either DMSO or O1821, in the presence or absence of IL-1β 10-25 ng/ml or PDGF 50 ng/ml in complete media or in serum-free media. Cells were then fixed with 4% formaldehyde for 15 minutes at room temperature and permeabilized with PBS/Triton X-100 0.1% for 5 minutes. Non-specific binding was blocked with 5% nonfat milk. A rabbit anti-Trpv2 (Santa Cruz Biotechnology) was used as primary antibody, and a Alexa Fluor 488 (green) donkey anti-rabbit IgG (Invitrogen) used as secondary antibody. Alexa Fluor 594 (red) Phalloidin (Invitrogen) was used to stain the actin filament. The stained cells were mounted on a glass slide. A Zeiss Axiovert 200 M fluorescent microscope was used for visualization with the appropriate filters, with Zeiss Axioversion 4.7 software. Immunofluorescence microscopy was used for cell cytoskeleton scoring as previously described (Laragione et al., “CXCL10 and its Receptor CXCR3 Regulate Synovial Fibroblast Invasion in Rheumatoid Arthritis,” Arthritis Rheum. 63 (11):3274-3283 (2011), which is hereby incorporated by reference in its entirety). An Olympus FluoView 300 was used for confocal microscopy with a 600× magnification.

SMILES | FLS invasion decreased by [1] | Decrease of IL-1β-induced MMP-2 expression [2] | Cell invasion [3] | Distribution of Trpv2 in FLS ([4]; 10 μM) | Actin cytoskeleton rearrangements, lamellipodia, cell morphology ([4]; 10 μM, 30 minutes to 24 hours, PDGF or IL-1β) | Actin cytoskeleton organization, number and distribution of lamellipodia ([4]; RA FLS, 1 μM, 30 minutes)
C#Cc1cc(O)c(C2C=C(C)CCC2C(=C)C)c(O)c1C1C=C(C)CCC1C(=C)C [Compound 13, (1R,2″R,2R,2″S)-6′-ethynyl-5,5″-dimethyl-2,2″-di(prop-1-en-2-yl)-1,1″,2,2″,3,3″,4,4″-octahydro-[1,1′:3′,1″-terphenyl]-2′,4′-diol] | Decreased by 64% |  |  |  |  | 
C=C(C)[C@@H]1CCC(C)=C[C@H]1c1c(O)cc(C)cc1O [Compound O1821] |  | 45.6% and 50% | significantly reduce cell invasion | did not significantly change | no significant effect | did not affect
